melting point [°C] | SMILES
156 | Fc1ccc(Cn2c(NC3CCN(CCOc4nccs4)CC3)nc3ccccc32)cc1
205 | N#Cc1c(NC(=O)c2ccccc2)ccc2ccccc12
218 to 220 | O=S1(=O)c2ccccc2-n2c(Cl)nnc21
261 to 263 | COc1cc(O)cc2oc(=O)cc(C)c12
141 to 143 | CC(C)N(C(=O)CN1C(=O)Cn2cnnc2-c2ccccc21)c1ccccc1
240 to 242 | Cc1cccc(Br)c1C(=O)N[C@@H](Cc1ccc(-c2c(C)n(C)c(=O)n(C)c2=O)cc1)C(=O)O
133 to 134 | CN(C(=O)c1ccc(-n2cc3ccccc3n2)cc1)[C@@H]1CCN(C(=O)OC(C)(C)C)C1
67.5 to 69.5 | C=CCSC1=C(O)CC(C)(C)CC1=O
153 to 155 | O=C(NCCO)/C(=C/c1ccc(OC(F)F)cc1)NC(=O)c1ccc(OCCC2CC2)cc1
174 | COc1ccc(CC(=O)NC(NC(=NC#N)Nc2ccccc2C)C(C)(C)C)cc1 (stereo not given)
168 to 178 | CN(CCO)c1cccc2c1C(=O)c1c(cccc1N(C)CCO)C2=O
212 | CCCCN1C(=O)NC(=Cc2ccc(C(=O)OC)cc2)C1=O
100 | O=C1C(Br)=C(Br)C(=O)c2c(F)cccc21
127 to 129 | Cc1cc(C)c2ncc(NC(=O)c3cc(C(C)(C)C)c(O)c(C(C)(C)C)c3)c(-c3ccccc3Cl)c2c1
66 to 67 | COc1cc(SC)c(C)cc1OCCBr
209 to 210 | CCOC(=O)c1cc(C)n(-c2cccc(C(N)=O)c2)c1-c1ccccc1
39 to 41.5 | CCS(=O)(=O)ON=C(Cl)c1ccc(F)cc1
101 to 103 | C=CCN1CCCN(c2ccc(Cl)cc2C)C1=S
142 to 143 | O=[N+]([O-])c1ccc(OCc2ccc3ccccc3n2)cc1
98 | Cc1cc(=O)c(C(=O)O)c(C)o1
193 to 195 | COc1ccc(-c2ccc3c(c2)c2ccc(C=Cc4ccccc4)nc2n3S(=O)(=O)c2ccccc2)cc1
112 | CCOC(=O)Cn1c(CC)nc2c(OCc3ccc(OC)cc3)cccc21
141 to 144 | CCN(CC)CCOc1ccc(Nc2ncc3c(n2)N(C)C(=O)N(c2ccccc2)C3)cc1
136 to 139 | CS(=O)(=O)Oc1ccc(-c2c3ccccc3cc3sc4ccccc4c23)cc1
88.5 to 89.5 | N#Cc1ccc(N2CCc3ccccc32)cc1

melting point [°C] | SMILES
> 260 | N=C(N)Nc1nc2cc(Cl)c(Cl)cc2[nH]1
85 | Cc1cc(C)cc(NC(=O)Cc2ccc(OC(C)(C)C(=O)O)cc2)c1
108 to 110 | Nc1ncccc1OCc1c(F)ccc(F)c1F
220 | CC(=O)N1CC=C(c2cc(C)c(O)cc2C)CC1
241 to 242 | Nc1c(-c2ccc(Br)cc2)nc2ccc(Cl)cc2c1C(=O)O
120 to 122 | CCN(CC)C(=O)c1cccc(I)c1C(=O)O
178 | Cc1ccc(S(=O)(=O)c2ccccc2S(=O)(=O)N=CN(C)C)cc1
251 to 256 | O=C(O)c1ccc(Cn2ccc(OCc3ccccc3)c(Br)c2=O)cc1
155 to 157 | CN1CCN(C2=Nc3ccccc3N=C(c3ccccc3)C2)CC1
217 to 220 | N#Cc1ccc2nc(Cl)c3ccccc3c(=O)c2c1
189 | N#Cc1ccc(N2CC(=O)NC2=O)c(-c2cccs2)c1
181 to 183 | COc1cc(OC(C)(C)C(=O)O)c(-c2cccs2)cc1/C=C/C(=O)c1ccc(NS(C)(=O)=O)cc1
126 to 128 | Cc1c(C)c(N2CCN(c3ccnn3C)CC2)c(C)c2c1OC(C)(C)C2
109 to 111 | COc1ccc(CCNC(=O)CCCCC(=O)NCCNc2ccccc2)cc1OC
86 | CC(C)(C)OC(=O)CN(C(=O)CCl)c1ccccc1
157 | COc1nn(-c2cccc(N(C)C(C)=O)c2)c(=O)n(Cc2ccc(Cl)cc2)c1=O
67 to 68 | CSCOc1cc(Cl)ccc1C=O
180 to 185 | COc1ccc(C(=O)Nc2ccc(Cl)cc2)cc1NC(=S)Nc1cc(Cl)cc(Cl)c1
> 230 | COc1cncnc1N1CCN(CCCc2c[nH]c3ccc(N(C)S(=O)(=O)C(F)(F)F)cc23)CC1
277 to 279 | Cc1n[nH]c2cc(-c3nn(Cc4oc5ccc(F)cc5c(=O)c4-c4ccccc4)c4ncnc(N)c34)ccc12
181 to 185 | Cc1nc(N)nc(N)c1CCCc1ccc(Cl)cc1Cl
215 to 217 | c1ccc2c(c1)Nc1ccccc1-n1ccnc1-2
161 to 164 | C=CCCn1c2ccc(OC)cc2c2c3c(c(-c4ccccc4Cl)cc21)C(=O)N(Cc1ccc(OC)cc1OC)C3=O
208 | COc1cc(C=CC(=O)Nc2ccccc2C(=O)O)ccc1O

The remaining lines, values behind:

SMILES | melting point [°C]
Cc1cc(C(=O)NS(=O)(=O)c2ccccc2Cl)nc(Cl)n1 | 170 to 171
COCn1ccnc1C(O)(c1ccc(F)cc1)c1ccc(Cl)cc1Cl (stereo not given) | 179
O=c1[nH]c(=O)n(Cc2cccc(OCc3noc(-c4ccc(F)cc4)n3)c2)o1 | 147 to 148
CCN(CC)Cc1nnc2n1-c1ccc(Cl)cc1C(c1ccccc1)=NC2 | 130 to 132
O=Cc1[nH]cc2c1CN=C(c1ccccc1Cl)c1cc(Cl)ccc1-2 | 270 to 274
O=C(O)CCCOc1cccc(CCCCCCOc2ccc3c(c2C/C=C/c2ccccc2)CCCC3=O)c1CCC(=O)O | 102 to 104
O=C1N(Cc2nc3ccccc3s2)c2ccccc2C12COc1cc3c(cc12)OCCO3 (stereo not given) | 164 to 166
CS(=O)(=O)N1CC(=O)c2ccsc2C1 | 120
COC(=O)c1ccc(-c2cc(=O)c3ccc(N)cc3o2)cc1 | > 260
CCOc1c(C)c(C)c2c(c1C)CCC(C)(COc1ccc(N)cc1)O2 (stereo not given) | 121 to 123
C=CCN(CC=C)c1nc(NC(=O)c2c(Cl)cccc2Cl)n2oc(=O)nc2n1 | 133 to 135
CNCC(=O)NC(=O)N(CCCl)N=O | 86 to 88
COC(=O)c1cc(C[C@@H]2COc3ccc(OCc4nc5cc(F)ccc5s4)cc3[C@@H]2O)ccc1OC (relative stereo) | 160 to 162
Fc1c(F)c(F)c(-c2c3ccccc3c(-c3c(F)c(F)c(F)c(F)c3F)c3ccccc23)c(F)c1F | 337 to 338
N#Cc1ccc2nc(C(=O)NCc3cccc(CNC(=O)Cc4nc[nH]n4)c3)[nH]c(=O)c2c1 | 207 to 208
COc1ccc(S(=O)(=O)N(Cc2cccnc2)[C@@H](C(=O)NOCc2ccccc2)C(C)C)cc1 | 74.5 to 76
COc1cccc(Oc2ccc([N+](=O)[O-])cc2C#N)c1 | 102 to 104
O=CNc1ccsc1I | 100 to 107
CNn1cc(C(=O)O)c(=O)c2cc(F)c(N3CCN(C)CC3)cc21 | 299 to 301
CCc1cc(O)n(-c2ccccn2)n1 | 189
COc1cc(NC(=O)Nc2ccc3c(c2)CCN(C(=O)Nc2ccc(OCC(O)CO)cc2Cl)C3)cc(OC)c1 (stereo not given) | 108 to 110
Cc1cccc(NC(=O)NCC(=O)N(CC(=O)N2CCCCC2C)c2ccccc2)c1 (racemic) | 188
O=c1c2cc(F)ccc2nc(NCc2ccccn2)n1-c1ccccc1Cl | 156 to 158
COc1cc2c(cc1F)C(=Cc1ccc(SC)cc1)C(C)=C2CC(=O)O | 172 to 174
COC(=O)c1cccc2c1ccn2C | 194 to 195
CCN(CC)Cc1cc(Nc2ccnc3cc(Cl)ccc23)c2ccccc2c1O | 158 to 160

SMILES | melting point [°C]
Cc1nnc2n1-c1ccccc1CS2 | 142 to 144
C=C1C(=O)N[C@@H](Cc2ccccc2)C(=O)N1C(C)C | 141 to 142
CC=CCn1c(C)c(C)c2cnnc(OCc3c(Cl)cccc3Cl)c21 | 133 to 140
CCCCC1Oc2ccc(Cl)cc2N(CC(O)CO)C1=O (stereo not given) | 69.5
CCOC(=O)c1nnc(CNC(=O)c2cc3ccccc3[nH]2)n1-c1sc(CC)cc1C(=O)c1ccccc1Cl | 233 to 235
O=c1[nH]ncc(N2CCN(C34CC5CC(CC(C5)C3)C4)CC2)c1Cl | 292 to 294
O=C(NCCC[PH](=O)O)OCc1ccccc1 | 53 to 55
CCOC(=O)c1cc2ccccc2n1CC1CC(=O)N(Cc2ccccc2)C1 (stereo not given) | 93 to 94
NC1=NC(c2ccc(OC(F)(F)F)cc2)(c2cccc(-c3cncc(F)c3)c2)C2=NCCON12 (stereo not given) | 120 to 135
N#Cc1c(N)oc2c(-c3ccccc3)cccc2c1=O | 217 to 219
CC(Cc1cc2ccccc2[nH]1)(NC(=O)OC1C2CC3CC(C2)CC1C3)C(=O)NCC(N)c1ccccc1 (stereo not given) | 96 to 102
Cc1cccc(NC(=O)NCC(=O)N(CC(=O)N2CCCc3ccccc32)c2ccccc2)c1 | 167
COc1ccc(N(CC(O)CO)S(=O)(=O)c2c(F)c(F)c(F)c(F)c2F)cc1 (stereo not given) | 130 to 131
Clc1cc2c(cc1Cl)OCCO2 | 147 to 148
CC(C)(C)c1cc(-c2cncn2CCCO)cc(C(C)(C)C)c1O | 166 to 167
CCOC(=O)Nc1cccc2c1CN(C)CC2c1ccccc1 (stereo not given) | 174
Nn1cc(F)c(=O)[nH]c1=O | 196 to 199
O=C1C=CC(=C(c2ccccc2)c2ccccc2)O1 | 110 to 112
CCc1ccc(NN)c(Cl)c1 | 55 to 57
CC1(C)CCCC(C)(C)N1OCc1ccccc1C(=O)ON1C(=O)CCC1=O | 145
O=C(c1ccc([N+](=O)[O-])c(OCc2ccc(-c3ccccc3-c3nnnn3C(c3ccccc3)(c3ccccc3)c3ccccc3)cc2)c1)N1CCOCC1 | 188 to 190
O=C(O)c1ccc(OCCN2CCOCC2)cc1 | 112 to 114
CC(C)c1nccc2c(CNC(=O)C(Cl)Cl)cccc12 | 151
COC(=O)CC(O)CC(O)CCc1c(-c2ccc(F)cc2)c(-c2ccccc2)c(C(=O)Nc2ccc(C(=O)OC)cn2)n1C(C)C (stereo not given) | 71 to 75
CCOc1ccc(C=CC(=O)OC)cc1 | 68 to 70
